Results published in paper PMC9883013 (eLife, 2023).
Several values for one entry are separate records, joined by “and”; a condition that tells them apart may be missing. Equal values may be shown once. Entries after “also recorded” stand apart in the source; their conditions may differ. Read-outs that look alike come from different tables or passages of the source.

What was measured:
[1] = target: WT-SERT (Homo sapiens, UniProt P31645); experiment: [3H]5-HT uptake by cells transiently expressing WT-SERT after 24 hr preincubation; conditions: 30 µM for 24 hr; 0.1 µM [3H]5-HT
[2] = target: T1, wild-type human YFP-tagged SERT (Homo sapiens, UniProt P31645); experiment: Inhibition of SERT-mediated [3H]5-HT uptake in HEK293 cells stably expressing YFP-SERT; assay type: cell-based; set-up: expressed in transfected cells
[3] = system: YFP-tagged human SERT-PG^601,602AA in serotonergic neurons; experiment: Delivery of mutant transporter to the fan-shaped body in transgenic flies fed with drug; assay type: in vivo, Drosophila melanogaster; conditions: 100 µM in food for 48 hr, 3-day old male flies
Excerpt: (§1) The transgenic UAS reporter lines for YFP-tagged human wild-type SERT and SERT-PG^601,602AA were generated using the pUAST-attB vector (gift from Drs Bischof and Basler, University of Zürich) and injected into embryos of ZH-86Fb flies (Bloomington stock no. 24749). Positive transformants were isolated and selected. TRH-T2A-Gal4 (Bloomington stock no. 84694) was used to drive the expression of transporters in serotonergic neurons. […] The brains of these flies were then imaged using confocal microscopy. All flies were kept at 25°C, and all crosses were performed at 25°C.
(§2) Adult fly brains were dissected in PBS and fixed in 2% paraformaldehyde in PBS for 1 hr at room temperature. Brains were then washed three times in 0.1% Triton X-100 in PBS for 20 min on a shaker. Blocking was performed in 10% goat serum for 1 hr at room temperature on a shaker. Brains were then incubated in primary antibody overnight in PBS containing 3% BSA and 0.3% Triton X-100 at 4°C on a shaker. The rabbit polyclonal IgG directed against GFP (1:1000 dilution; A-11122, Invitrogen) and anti-serotonin antibody (S5545, Sigma-Aldrich) were used as primary antibodies. After three washes for 20 min with PBS containing 0.1% Triton X-100, the brains were incubated overnight at 4°C with a secondary antibody in PBS containing 0.3% Triton X-100 on a shaker. […]

[4] = system: YFP-tagged wild-type human SERT in serotonergic neurons; experiment: Localization of wild-type transporter in the fan-shaped body in transgenic flies fed with drug; assay type: in vivo, Drosophila melanogaster; conditions: 100 µM in food for 48 hr, flies harboring wild-type human SERT
Excerpt: as §1, §2

[5] = target: T2, SERT-PG^601,602AA (Homo sapiens, UniProt P31645, G602A/P601A); experiment: Immunoblotting of glycosylation state (mature vs core-glycosylated band) of the SERT mutant; assay type: cell-based
T2 construct: expressed in transfected cells; host or cells: HEK293 (ATCC CRL-1573), transient PEI transfection

[6] = target: T3, wild-type GFP-tagged human SERT (Homo sapiens, UniProt P31645); experiment: Whole-cell patch clamp recordings of currents through SERT; assay type: cell-based; conditions: 100 µM pre-applied for 1 s or 3 s in the absence of 5-HT; internal 150 mM NaCl
T3 construct: expressed in transfected cells

[7] = target: T4, SERT (Homo sapiens, UniProt P31645); experiment: Inhibition of [3H]citalopram binding to membranes from HEK293 cells expressing GFP-SERT
T4 construct: expressed in transfected cells
Method: Membranes were prepared from HEK293 cells stably expressing GFP-SERT. […] The pellets were resuspended in a buffer containing 20 mM HEPES, 2 mM MgCl2, 1 mm EDTA, pH adjusted to 7.4 with NaOH, subjected to freeze-thaw cycles in liquid nitrogen and sonicated on ice three times for 10 s with 30 s intervals. Following another centrifugation step, the whole-cell membrane pellets were resuspended in buffer and protein concentration was estimated by dye binding (Coomassie Brilliant Blue R-250; Bio-Rad, USA). […] Binding reactions were also done in the presence of 120 mM K^+ buffer (buffer composition: 20 mM Tris-HCl, pH 7.4, 1 mM EDTA, 2 mM MgCl2, 120 mM KCl; 4 mM Na^+ were present from the carry-over of HEPES·NaOH and from Na·EDTA). For binding reactions under these conditions, 7–8 µg of membranes were used to improve the dynamic range of binding. The binding reactions were terminated by harvesting the membranes on glass fiber filters precoated with polyethylenimine and rapid washing with ice-cold wash buffer (10 mM Tris·HCl, pH 7.4, 120 mM NaCl, 2 mM MgCl2). The radioactivity trapped on the filters was quantified by liquid scintillation counting. Nonspecific binding was measured in the presence of 10 µM paroxetine.

[8] = target: T2, SERT-PG^601,602AA; experiment: Functional rescue (pharmacochaperoning) of folding-deficient SERT mutant, [3H]5-HT uptake after 24 hr preincubation; assay type: cell-based; conditions: for [3H]5-HT uptake normalized to untreated wild-type SERT: 30 µM for 24 hr, 0.1 µM [3H]5-HT, untreated mutant 14.8 ± 5.3%; for Emax: read-out: EMAX of pharmacochaperoning (rescued uptake, % of transport velocity in cells expressing wild-type SERT)
[9] = target: T3, wild-type GFP-tagged human SERT; experiment: Whole-cell patch clamp recordings of currents through SERT; assay type: cell-based; conditions: for transient peak current on application of the compound: 100 µM, absence of substrate
Method: HEK293 cells stably expressing wild-type GFP-tagged human SERT were seeded at low density on poly-D-lysine-coated dishes. Twenty hr after seeding, these cells were subjected to patch clamp recordings in the whole-cell configuration. In most instances cells were continuously maintained in an external solution containing 140 mM NaCl, 3 mM KCl, 2.5 mM CaCl2, 2 mM MgCl2, 20 mM glucose, and 10 mM HEPES (pH adjusted to 7.4 with NaOH) and the drugs were diluted therein. The internal solution in the patch pipette contained 133 mM potassium gluconate (CH2OH(CHOH)4COOK), 5.9 mM NaCl, 1 mM CaCl2, 0.7 mM MgCl2, 10 mM HEPES, 10 mM EGTA (pH adjusted to 7.2 with KOH). Drugs were applied using a 4-tube ALA perfusion manifold (NPI Electronic GmbH, Germany) and a DAD-12 superfusion system (Adams & List, Westbury, NY, USA) allowing for complete solution exchange around the cells within 100 ms. Current amplitudes and associated kinetics were quantified using Clampfit 10.2 software. Passive holding currents were subtracted, and the traces were filtered using a 100 Hz digital Gaussian low-pass filter.

[10] = target: T1, wild-type human YFP-tagged SERT; experiment: Saturation kinetics (KM, Vmax) of 5-HT uptake by SERT after preincubation with inhibitor
[11] = system: NCCc1c[nH]c2ccc(O)cc12; experiment: cells, lysate or membranes; conditions: other: absence of any inhibitor; pH 7.4
[12] = inhibition of 10 µM 5-HT-induced steady current
[13] = preincubation with 10 µM inhibitor
[14] = preincubation with 30 µM inhibitor
[15] = preincubation with 3 µM inhibitor

Compound: O=CNC(Cc1ccc2c(c1)OCO2)Cc1ccc2c(c1)OCO2 [ECSI#6, N-formyl-1,3-bis (3,4-methylenedioxyphenyl)-prop-2-yl-amine]
- [3H]5-HT uptake normalized to untreated wild-type SERT [1]: 103.3 ± 11.3%
- IC50 ([2]; IC50(0.1), inhibition of [3H]5-HT uptake, 0.1 µM [3H]5-HT, absence of additional unlabeled 5-HT): 441 µM
- IC50 ([2]; IC50(1), inhibition of [3H]5-HT uptake, 0.1 µM [3H]5-HT, presence of 1 µM unlabeled 5-HT): 74.1 µM
- IC50 ([2]; IC50(3), inhibition of [3H]5-HT uptake, 0.1 µM [3H]5-HT, presence of 3 µM unlabeled 5-HT): 25.6 µM
- IC50 ([2]; IC50(10), inhibition of [3H]5-HT uptake, 0.1 µM [3H]5-HT, presence of 10 µM unlabeled 5-HT): 19.3 µM
- IC50 ([2]; low 5-HT concentration (0.1 µM), read-out: IC50 value in the uptake assay): ~500 µM
- delivery of the mutant transporter to the presynaptic territory (fan-shaped body) [3]: partially restored the delivery of the mutant transporter to the presynaptic territory
- effect on level of fluorescence in the fan-shaped body [4]: did not have any appreciable effect
- EC50 [5]: 0.44 µM
- EMAX of ratio of mature (M) to core-glycosylated band (C) ([5]; 24 hr treatment, densitometry, corrected for Gβ): 1.42 AU
- effect of pre-application on 5-HT-induced peak current amplitude [6]: did not result in the reduction of the peak current amplitude
- fold more potent in displacing [3H]citalopram in 120 mM KCl than in 120 mM NaCl [7]: about 10 fold
- binding relative to serotonin (Dixon plots) ([7]; 1 and 10 µM serotonin): mutually exclusive
- IC50 ([7]; IC50(1 µM 5-HT), inhibition of [3H]citalopram binding, 120 mM Na+, 1 µM 5-HT): 28.6 µM
- IC50 ([7]; IC50(10 µM 5-HT), inhibition of [3H]citalopram binding, 120 mM Na+, 10 µM 5-HT): 60 µM
- IC50 ([7]; IC50(no 5-HT), inhibition of [3H]citalopram binding, 120 mM Na+, 3 nM [3H]citalopram, no 5-HT): 16 µM
- IC50 ([7]; buffer with 120 mM K+, read-out: IC50(120 K+), inhibition of [3H]citalopram binding): 4.18 µM and 5 µM
- IC50 ([7]; buffer with 120 mM Na+ (Na+/K+ comparison), read-out: IC50(120 Na+), inhibition of [3H]citalopram binding): 46.2 µM
- affinity estimate, fold lower than the KD of 1 µM required for ToNaS ([7]; presence of 10 µM 5-HT): > 30 fold
- [3H]5-HT uptake normalized to untreated wild-type SERT [8]: 56.5 ± 5.1%
- EC50 ([8]; 24 hr preincubation, read-out: EC50 for pharmacochaperoning (rescued uptake)): 2.9 µM
- Emax [8]: 52%
- IC50 ([9]; 30 µM 5-HT, ECSI#6 co-applied, read-out: IC50 of block of the 5-HT-induced steady current): 4.5 µM and ~5 µM
- effect on 5-HT-induced steady current ([9]; 100 µM in continuous presence of 10 µM 5-HT): complete suppression of the current
- effect of intracellular application on 5-HT-induced current amplitude ([9]; 100 µM in the electrode solution, 30 µM 5-HT): only had a modest effect, if any; also recorded: did not cause an appreciable current block
- ratio of the second and first pulse (peak 2/peak 1) ([9]; 100 µM pre-applied for 1 s or 3 s): always close to one
- transient peak current on application of the compound [9]: failed to do so
- koff (y-intercept of kapp vs concentration) [9, 12]: 1.7±0.5 s^–1
- kon (slope of kapp vs concentration) [9, 12]: 2.1*10^4±3.5*10^3 M^–1 s^–1
- mode of inhibition of substrate uptake by SERT [10]: uncompetitive inhibition
- VMAX of 5-HT transport by SERT [10, 13]: 89.5 pmol min^–1 10^–6 cells
- VMAX of 5-HT transport by SERT [10, 14]: 49.9 pmol min^–1 10^–6 cells
- VMAX of 5-HT transport by SERT ([10]; preincubation with 100 µM inhibitor): 20.8 pmol min^–1 10^–6 cells

Compound: COC(=O)[C@H]1[C@@H](OC(=O)c2ccccc2)C[C@@H]2CC[C@H]1N2C [cocaine]
- [3H]5-HT uptake normalized to untreated wild-type SERT [1]: 111.4 ± 4.2%
- effect on SERT species carrying mature glycans ([5]; 30 µM (saturating concentration), 24 hr): did not cause any appreciable increase
- potency in inhibiting [3H]citalopram binding in 120 mM KCl compared with 120 mM NaCl [7]: substantially less potent (by an order of magnitude)
- kapp of current inhibition, level at which it leveled off ([9]; 10 µM 5-HT-induced steady current, –60 mV): about 2 s^–1
- transient peak current on application of the compound [9]: induced transient peak currents
- mode of inhibition of substrate uptake by SERT [10]: competitive
- VMAX of 5-HT transport by SERT [10, 15]: 118.3 pmol min^–1 10^–6 cells
- VMAX of 5-HT transport by SERT [10, 13]: 121.1 pmol min^–1 10^–6 cells
- VMAX of 5-HT transport by SERT [10, 14]: 120.1 pmol min^–1 10^–6 cells

Compound: CCC1CC2CC3c4[nH]c5ccc(O)cc5c4CCN(C2)C13 (stereo not drawn) [noribogaine, reference compound]
- [3H]5-HT uptake normalized to untreated wild-type SERT [1]: 93.5 ± 28.8%
- delivery of the mutant transporter to the presynaptic territory (fan-shaped body) [3]: partially restored the delivery of the mutant transporter to the presynaptic territory
- effect on level of fluorescence in the fan-shaped body [4]: did not have any appreciable effect
- potency in inhibiting [3H]citalopram binding in 120 mM KCl compared with 120 mM NaCl [7]: distinct binding preference was not obvious
- [3H]5-HT uptake normalized to untreated wild-type SERT [8]: 71.9 ± 6.4%
- Emax [8]: 69.5%
- transient peak current on application of the compound [9]: induced transient peak currents
- mode of inhibition of substrate uptake by SERT [10]: non-competitive
- VMAX of 5-HT transport by SERT ([10]; preincubation with 1 µM inhibitor): 82.4 pmol min^–1 10^–6 cells
- VMAX of 5-HT transport by SERT [10, 15]: 39.9 pmol min^–1 10^–6 cells
- VMAX of 5-HT transport by SERT [10, 13]: 19.5 pmol min^–1 10^–6 cells

Compound: wild-type human YFP-tagged SERT (Homo sapiens)
- Km [11]: 2.3 µM
